Results from ChEMBL document CHEMBL1201862, “PubChem BioAssay data set” (2004).
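Grown in 96-well plates, cells were treated for 48 hours with each compound at five concentrations. Insufficient inhibition: endpoint recorded as highest concentration tested. Here, GI50 denotes the concentration required for 50% inhibition of growth.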 Active and inactive are the calls of the source. No stated cut-off is given here; in the data, active = GI50 up to about 1.1 µM and inactive = higher.

How the values were obtained:
Test in all cases: NCI-60 cell line screen, 48 h
SK-OV-3 = tested on: SK-OV-3
OVCAR-5 = tested on: OVCAR-5
LOX IMVI = tested on: LOX IMVI
NCI-H522 = tested on: NCI-H522
SF-295 = tested on: SF-295
SF-539 = tested on: SF-539
BT-549 = tested on: BT-549
NCI-H226 = tested on: NCI-H226
SW-620 = tested on: SW-620
MDA-MB-231 = tested on: MDA-MB-231
786-0 = tested on: 786-0
HT-29 = tested on: HT-29
MDA-MB-435 = tested on: MDA-MB-435
RXF 393 = tested on: RXF 393
M14 = tested on: M14
DU-145 = tested on: DU-145
A498 = tested on: A498
HOP-92 = tested on: HOP-92
NCI-H460 = tested on: NCI-H460
HL-60 = tested on: HL-60

Measured: GI50

COc1ccc(/C=C2\N=C(SC)NC2=O)cc1
inactive: SK-OV-3 > 100 µM | OVCAR-5 > 100 µM | LOX IMVI > 100 µM | NCI-H522 69 µM | SF-295 > 100 µM | SF-539 80.7 µM | BT-549 42.8 µM | NCI-H226 > 100 µM | SW-620 > 100 µM | MDA-MB-231 59.6 µM | 786-0 > 100 µM | HT-29 > 100 µM | MDA-MB-435 91.8 µM | RXF 393 67.3 µM | M14 > 100 µM | DU-145 53.8 µM

Cc1cc([N+](=O)[O-])c(C)c(Br)c1C
inactive: SK-OV-3 > 100 µM | OVCAR-5 > 100 µM | NCI-H522 > 100 µM | SF-295 > 100 µM | SF-539 > 100 µM | BT-549 > 100 µM | NCI-H226 > 100 µM | SW-620 > 100 µM | MDA-MB-231 > 100 µM | A498 > 100 µM | 786-0 > 100 µM | HOP-92 62.2 µM | HT-29 > 100 µM | NCI-H460 > 100 µM | MDA-MB-435 > 100 µM | RXF 393 60.5 µM | M14 > 100 µM | DU-145 > 100 µM

N#CC1=C2Sc3ccccc3N2[C@H](c2ccccc2)[C@H]2COC(=O)[C@@H]12
inactive: SK-OV-3 > 100 µM | OVCAR-5 > 100 µM | LOX IMVI 26.3 µM | NCI-H522 11.2 µM | SF-295 > 100 µM | SF-539 > 100 µM | BT-549 27.9 µM | NCI-H226 > 100 µM | SW-620 35.2 µM | MDA-MB-231 > 100 µM | A498 54.8 µM | 786-0 > 100 µM | HOP-92 > 100 µM | MDA-MB-435 > 100 µM | RXF 393 70.3 µM | M14 52.4 µM | DU-145 > 100 µM

COc1ccc(-c2csc(Cc3nc4c(Br)cc(Br)cc4c(=O)n3-c3ccc(OC)cc3)n2)cc1
inactive: SK-OV-3 51.8 µM | OVCAR-5 56.4 µM | LOX IMVI > 100 µM | SF-295 59.4 µM | BT-549 > 100 µM | NCI-H226 > 100 µM | SW-620 67 µM | MDA-MB-231 45.7 µM | A498 45.3 µM | 786-0 28.3 µM | HOP-92 > 100 µM | HT-29 48.9 µM | NCI-H460 54 µM | MDA-MB-435 15.9 µM | RXF 393 > 100 µM | M14 20.9 µM | DU-145 > 100 µM

O=C1Cc2c([nH]c3ccccc23)C2(CC3CCCCN13)OCCO2 (centres undefined)
inactive: SK-OV-3 > 100 µM | OVCAR-5 > 100 µM | SF-295 > 100 µM | BT-549 > 100 µM | NCI-H226 > 100 µM | SW-620 > 100 µM | MDA-MB-231 84.5 µM | A498 > 100 µM | 786-0 > 100 µM | HOP-92 34.2 µM | HT-29 > 100 µM | NCI-H460 > 100 µM | MDA-MB-435 > 100 µM | RXF 393 29.2 µM | M14 > 100 µM | DU-145 > 100 µM

CCCCOC(=O)C1CN2C(=NC1(C(F)(F)F)C(F)(F)F)Sc1ccccc12 (centres undefined)
inactive: SK-OV-3 78.5 µM | OVCAR-5 > 100 µM | LOX IMVI 43.5 µM | HL-60 16.6 µM | SF-295 36.9 µM | SF-539 44.1 µM | BT-549 26.1 µM | NCI-H226 27 µM | SW-620 49.5 µM | MDA-MB-231 > 100 µM | A498 > 100 µM | 786-0 64.3 µM | HOP-92 72.4 µM | HT-29 22.5 µM | NCI-H460 34.9 µM | MDA-MB-435 > 10 µM | RXF 393 24.1 µM | M14 44.1 µM | DU-145 67.1 µM

CC(C(O)Cc1ccccc1)N(C)/N=N/c1ccc([N+](=O)[O-])cc1 (centres undefined)
inactive: SK-OV-3 22.3 µM | OVCAR-5 25.5 µM | HL-60 84.1 µM | SF-295 19.8 µM | BT-549 19.6 µM | NCI-H226 19.5 µM | SW-620 23.9 µM | MDA-MB-231 14.6 µM | 786-0 18.5 µM | HT-29 18.6 µM | NCI-H460 15.2 µM | MDA-MB-435 18.9 µM | RXF 393 1.19 µM | M14 16.8 µM | DU-145 27 µM

CC(=O)O[C@H]1CCC2[C@@H]3CCC4Cc5nc6c(nc5C[C@]4(C)C3CC[C@@]21C)CC1CC[C@@H]2C(CC[C@@]3(C)C2CC[C@@H]3C(C)CCCC(C)C)[C@@]1(C)C6 (some centres undefined)
inactive: SK-OV-3 > 100 µM | OVCAR-5 > 100 µM | LOX IMVI > 100 µM | HL-60 > 100 µM | SF-295 > 100 µM | SF-539 > 100 µM | BT-549 > 100 µM | NCI-H226 > 100 µM | SW-620 > 100 µM | MDA-MB-231 > 100 µM | 786-0 > 100 µM | HOP-92 > 100 µM | HT-29 > 100 µM | NCI-H460 > 100 µM | MDA-MB-435 > 100 µM | RXF 393 > 100 µM | M14 > 100 µM | DU-145 > 100 µM

CCC(C)(C)C1CCC2c3c([nH]c4ccccc34)C3C(=O)N(c4ccc(OC)cc4)C(=O)C3C2C1 (centres undefined)
inactive: SK-OV-3 31.9 µM | OVCAR-5 15.3 µM | LOX IMVI 6.81 µM | NCI-H522 7.16 µM | SF-295 20.8 µM | SF-539 12.4 µM | BT-549 16.1 µM | NCI-H226 16.5 µM | SW-620 17.4 µM | MDA-MB-231 13 µM | 786-0 10.6 µM | HT-29 11.2 µM | NCI-H460 7.4 µM | MDA-MB-435 11 µM | RXF 393 20.4 µM | M14 18.8 µM | DU-145 5.4 µM

CC(=O)N1N=C(c2ccc3ccccc3c2O)CC1C(=O)c1ccco1 (centres undefined)
inactive: SK-OV-3 36.1 µM | OVCAR-5 28.6 µM | NCI-H522 17.9 µM | SF-295 24 µM | SF-539 26.1 µM | BT-549 30.3 µM | NCI-H226 33.7 µM | SW-620 33.3 µM | MDA-MB-231 80.5 µM | A498 29.7 µM | 786-0 45 µM | HOP-92 16.6 µM | HT-29 22.8 µM | NCI-H460 15.3 µM | MDA-MB-435 14.7 µM | RXF 393 32.4 µM | M14 19.3 µM | DU-145 47.9 µM

Cc1ccc2c(c1)NC(=O)CC(c1ccccc1)=N2
inactive: SK-OV-3 > 100 µM | OVCAR-5 > 100 µM | LOX IMVI > 100 µM | NCI-H522 45.6 µM | SF-295 > 100 µM | SF-539 > 100 µM | BT-549 > 100 µM | NCI-H226 > 100 µM | SW-620 > 100 µM | MDA-MB-231 23.7 µM | A498 > 100 µM | 786-0 > 100 µM | HOP-92 > 100 µM | HT-29 > 100 µM | NCI-H460 > 100 µM | MDA-MB-435 31 µM | M14 > 100 µM | DU-145 > 100 µM
